In patent US5874597A, “Certain aminosterol compounds and pharmaceutical compositions including these compounds” (priority 1995, dated 1999):
Entries after “also recorded” stand apart in the source; their conditions may differ.

What was measured:
[1] = tested on: vitelline capillaries of chick embryo; assay: chick embryo vitelline capillary regression assay; assay type: in vivo; set-up: key to vitelline capillary regression: +: Vascular reactivity; 0: No vascular reactivity; +/-: Equivocal reactivity; conditions: for effect on vitelline capillaries / chick embryo: in vivo
Procedure: Using the chick embryo vitelline capillaries assay, compounds were tested for their ability to induce capillary regression. Each compound was applied in 0.1 ml of 15% Ficol 400 and PBS onto the embryo, and vascular regression was assessed after 60 minutes.
The 3-day chick embryo consists of an embryonic disc from which numerous vessels emerge and return, forming a "figure 8"-shaped structure--the embryo in the center with vascular loops extending outward over both poles. […] Following a lag period of around 15 minutes, the constriction of continuity between capillary and secondary vessels, generally on the "venous" side, was observed. Continued pulsatile blood flow progressed, resulting in a "swelling" of the blind tube, followed by a pinching off of the remaining connection and formation of an enclosed vascular sac resembling a "blood island." This process progressed until only the largest vessels remained intact.

[2] = tested on: Xenopus tadpole (stage 59-60); assay: Xenopus tadpole assay; assay type: in vivo, Xenopus laevis; conditions: for tadpole response: 10 μg/ml, about 1 hour; for pharmacologic similarity in tadpole assay: in vivo
NHE3 = conditions: cited from earlier work
B16 melanoma = assay: suppression of B16 melanoma growth in C57B mice; assay type: in vivo, mouse
Procedure: The growth of B16 melanoma in C57B mice is dependent upon neovascularization.
Using the growth of B16 melanoma cells in C57B mice, a recognized model for the evaluation of inhibitors of angiogenesis on the growth of cancers, the effects of subcutaneous, intraperitoneal and oral administration of squalamine were evaluated.
Based on the idea that tumor growth involves both the clonal expansion of a malignant cell along with the development of a supporting vascular supply, a combination of compound 1436 with squalamine was tested to determine whether it would achieve a synergistic effect on solid tumor growth. This concept was evaluated in the B16 melanoma model.
Animals were implanted with B16 melanoma followed by treatment with compound 1436 or 1256 administered in a combined schedule or separately. […] Thus, a combination of these two compounds achieves a therapeutic benefit in tumors dependent on neovascularization that may prevent metastatic spread.

NHE = assay: direct inhibition of NHE
Excerpt: Moreover, other aminosterols have shown anti-angiogenic activity. Compounds were subjected to a various assays, including the chick embryo capillary regression assay, the tadpole assay, the assay for inhibition of endothelial cord formation, and the assay for direct inhibition of NHE, as described above, to determine their utilities. As evident from the above data, correlation among the results from the chick, tadpole and in vitro inhibition of endothelial cell cord formation assays is excellent.

human melanoma = assay: effect on growth of human melanoma (time course, apoptosis); assay type: cell-based
[3] = tested on: human microvascular cells; assay: inhibition of endothelial cell cord formation in vitro; assay type: cell-based; conditions: at cord-inhibiting concentrations
Excerpt: Endothelial cells have the capacity in vitro to form tubular aggregates resembling capillaries in various early stages of formation. This conversion occurs under relatively specific conditions, in which essential growth factors along with an effective substratum are provided. It has been shown that both the interaction of growth factors with the endothelial cell and its attachment to a substratum activate the NHE. The activation of this exchanger is believed to be required for subsequent morphologic transformation of the endothelial cell into a multicellular tubular structure.
To assess the effect of compounds on the cord-like structures formed by human microvascular cells when plated in the presence of VEGF (Vascular Endothelial Growth Factor) and basic fibroblast growth factor on a collagen matrix, a standard cord formation assay was used.

[4] = tested on: human umbilical venous endothelial cells; assay: LPS/TNF-α-induced neutrophil adherence to human umbilical venous endothelial cells; assay type: cell-based; conditions: three different subjects; LPS or TNF-α activated
Excerpt: Methods 109, 1988, 175-184.

[5] = tested on: chorioallantoic membrane capillaries; assay: chorioallantoic membrane (CAM) model, inhibition of capillary growth; assay type: in vivo, chick; conditions: for Percentage positive, Assay 1 / Percentage positive, Assay 2 / Percentage positive, Mean: 3-Day Embryo
Excerpt: The growing capillaries within the chorioallantoic membrane model (CAM model) have been used as a system in which to evaluate the effect of agents on their potential to inhibit new vessel growth. Neovascularization occurs most aggressively over the first week of embryonic development. Thereafter capillary growth is characterized by principally "elongation" rather than "de novo" formation.
In the standard assay, agents are applied locally to a region of the embryo over which neovascularization will occur. Agents are assessed by their ability to inhibit this process, as evaluated by visual examination about 7 days after application. […] The assay utilized is described in detail in Auerbach et al., Pharm. Ther. 51, 1991, 1-11.

human melanoma 1205Lu = assay: suppression of human melanoma 1205Lu in RAG-1 mice; assay type: in vivo; conditions: 10, 20, 40 mg/kg/d
Excerpt: As apparent from FIG. 5, melanoma 1205Lu develops aggressively in RAG-1 mice after implantation.

[6] = tested on: Human coronary artery smooth muscle cells; assay: proliferation of human coronary artery smooth muscle in vitro; assay type: cell-based; conditions: FIG. 15
Excerpt: As set forth in Table 7 below, all malignant tumors evaluated in tissue culture, endothelial cells and vascular smooth muscle cells were sensitive to inhibition. Thus, compound 1436 has application in the control of growth factor dependent proliferation of many types of tissue.
Aminosterols of the invention may also have utility in inhibiting the growth factor mediated proliferation of smooth muscle within the artery. Following coronary angioplasty, reocclusion commonly occurs, secondary to reparative proliferation of the vascular smooth muscle within the wall of the surgically manipulated blood vessel. This process generally takes place over the course of 7-10 days. To evaluate whether an agent could prevent the growth factor mediated proliferation of smooth muscle within the artery, compound 1436 was evaluated in vitro for its effect on the proliferation of human coronary artery smooth muscle. Results for compound 1436 are shown in FIG. 13, and those for squalamine are shown in FIG. 14, with FIG. 15 being a composite logarithmic plot.

[7] = tested on: human foreskin fibroblasts; assay: growth inhibition of human fibroblasts; conditions: 10 μg/ml
[8] = tested on: human epithelial cell line MCF 10A; assay: growth inhibition of human epithelial cells; conditions: 10 μg/ml
rabbit NHE3 = rabbit NHE3 (Oryctolagus cuniculus, UniProt P26432); assay: inhibition of rabbit NHE3 in transfected PS120 fibroblasts (internal pH, BCECF-AM)
Procedure: Internal pH was measured either following acid loading or in the absence of an acid-loading challenge, with the results shown in FIGS. 1A and 1B.
Specifically, PS120 fibroblasts transfected with rabbit NHE3 were grown in supplemented Dulbecco's-modified Eagle's medium as described by Levine et al., J. Biol. Chem. 268, 1993, 25527-25535. […] For cells not acid-preloaded, the actual internal pH value was monitored as a function of time following addition of squalamine, with the results depicted in FIG. 1B.
PS120 fibroblasts transfected with rabbit NHE3 were grown and acid preloaded by exposure to 40 mM NH4 Cl as described above in conjunction with FIGS. 1A and 1B. Internal cellular pH changes expressed as the rate of pH recovery as a function of restored extracellular sodium ion concentration following exposure to 10 μg/ml of the compound were assayed with the fluorescent dye BCECF-AM as described above.

[9] = 20 μg, * = some vascular irritation noted
[10] = 40 μg, * = some vascular irritation noted

Chain of rabbit NHE3 (P26432 30-832): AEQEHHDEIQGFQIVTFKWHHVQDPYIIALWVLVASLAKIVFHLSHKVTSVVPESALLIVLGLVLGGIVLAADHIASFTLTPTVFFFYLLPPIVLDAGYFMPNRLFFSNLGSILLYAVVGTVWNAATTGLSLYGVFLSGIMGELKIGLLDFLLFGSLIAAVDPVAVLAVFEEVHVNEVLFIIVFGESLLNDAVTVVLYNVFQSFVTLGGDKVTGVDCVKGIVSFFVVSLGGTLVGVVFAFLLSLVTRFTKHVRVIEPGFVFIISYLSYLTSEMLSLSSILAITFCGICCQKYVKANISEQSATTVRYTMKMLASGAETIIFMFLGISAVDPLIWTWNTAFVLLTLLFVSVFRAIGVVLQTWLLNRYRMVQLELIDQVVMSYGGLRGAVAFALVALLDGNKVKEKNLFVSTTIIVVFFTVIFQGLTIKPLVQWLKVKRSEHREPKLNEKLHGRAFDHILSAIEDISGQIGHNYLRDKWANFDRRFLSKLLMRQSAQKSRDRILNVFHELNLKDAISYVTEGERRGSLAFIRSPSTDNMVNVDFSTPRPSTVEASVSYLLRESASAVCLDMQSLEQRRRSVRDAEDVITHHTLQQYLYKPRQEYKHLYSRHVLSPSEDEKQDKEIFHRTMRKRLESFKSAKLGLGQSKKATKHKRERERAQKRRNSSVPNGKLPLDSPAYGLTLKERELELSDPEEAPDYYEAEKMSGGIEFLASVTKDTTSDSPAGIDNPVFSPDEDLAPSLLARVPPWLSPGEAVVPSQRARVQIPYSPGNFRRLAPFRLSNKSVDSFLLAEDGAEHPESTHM

In the case of `CC(COS(=O)(=O)O)C(=O)CC[C@@H](C)[C@H]1CC[C@H]2[C@@H]3[C@H](O)C[C@H]4C[C@@H](NCCCNCCCCN)CC[C@]4(C)[C@H]3CC[C@]12C` (single isomer, unassigned) [Compound 1360], the “effect on vitelline capillaries / chick embryo” value [1] is reported as “the blood circulating through the embryonic vessels exhibited a brighter red color” and the “tadpole response” value [2] is reported as “Swelling and lysis of certain erythrocytes occurred; also recorded: extensive vasocclusion occurred within 60 minutes throughout the tail”.

For `N=C(N)NC(=O)c1nc(Cl)c(N)nc1N` [Amiloride, amiloride], the “effect on NHE3 kinetics (Km, Vmax)” value (NHE3) is listed as “affected only Vmax”.

In the case of `C[C@H](CCC(=O)O)[C@H]1CC[C@H]2[C@@H]3CC[C@H]4C[C@@H](NCCCNCCCCN)CC[C@]4(C)[C@H]3CC[C@]12C` [Compound 319], the “effect on vitelline capillaries / chick embryo” value [1] is reported as “especially active”, the “tadpole response” value [2] is reported as “common vascular occlusive effect” and the “control of B16 melanoma” value (B16 melanoma; compound 319 subcutaneous, C57B mice, FIG. 6) is reported as “almost comparable to squalamine”. The “potency as an NHE inhibitor” value (NHE) was “superior to squalamine”.

With `CC(C)CCC[C@@H](C)[C@H]1CC[C@H]2[C@@H]3CC[C@H]4C[C@@H](NCCCNCCCCNCCCN)CC[C@]4(C)[C@H]3CC[C@]12C` [Compound 353] the “effect on vitelline capillaries / chick embryo” value [1] was “no effect on the chick embryo capillary bed”, the “mechanism of cell death” value (human melanoma) was “apoptotic cell death has been induced” and the “time dependence of effect on growth of melanoma” value (human melanoma; FIG. 17A) was “most pronounced over 48 hours”.

With `COC(=O)CC[C@@H](C)[C@H]1CC[C@H]2[C@@H]3[C@H](O)C[C@@H]4C[C@@H](NCCCNCCCCNCCCN)CC[C@]4(C)[C@H]3CC[C@]12C` [Compound 411] the vitelline capillary regression ([1]; 0.1 μg applied, 60 min) was 0.

With `C[C@H](CCC(=O)O)[C@H]1CC[C@H]2[C@@H]3[C@H](O)C[C@@H]4C[C@H](NCCN)CC[C@]4(C)[C@H]3CC[C@]12C` [Compound 414] the “pharmacologic similarity in tadpole assay” value [2] was “pharmacologic activity similar to Fraction 1”.

For `C[C@H](CCC(=O)O)[C@H]1CC[C@H]2[C@@H]3[C@H](O)C[C@@H]4C[C@@H](NCCN)CC[C@]4(C)[C@H]3CC[C@]12C` [Compound 415], the “effect on vitelline capillaries / chick embryo” value [1] was “especially active”.

In the case of `CC(C)CCC[C@@H](C)[C@H]1CC[C@H]2[C@@H]3[C@H](O)C[C@H]4C[C@H](N)CC[C@]4(C)[C@H]3CC[C@]12C` [Compound 1363], the “pharmacologic similarity in tadpole assay” value [2] is reported as “pharmacologic activity similar to Fraction 1”.

For `CC(C)[C@@H](CC[C@@H](C)[C@H]1CC[C@H]2[C@@H]3[C@H](O)C[C@H]4C[C@@H](NCCCNCCCCN)CC[C@]4(C)[C@H]3CC[C@]12C)OS(=O)(=O)O` [squalamine], the “effect on cell viability or proliferation in cord assay” value [3] was “does not appear to profoundly affect cell viability or proliferation”, the “inhibition of neutrophil adherence” value [4] was “no inhibition” and the “Percentage positive, Assay 1” value ([5]; 0.65 μg) was 28%. The “Percentage positive, Assay 1” value ([5]; 1.25 μg) was 18%, the “Percentage positive, Assay 2” value ([5]; 1.25 μg) was 18% and the “Percentage positive, Mean” value ([5]; 1.25 μg) was 18%. The “Percentage positive, Assay 1” value ([5]; 2.5 μg) was 35%, the “Percentage positive, Assay 2” value ([5]; 2.5 μg) was 18% and the “Percentage positive, Mean” value ([5]; 2.5 μg) was 27%. For the same molecule, the “Percentage positive, Assay 1” value ([5]; 5.0 μg) was 91%, the “Percentage positive, Assay 2” value ([5]; 5.0 μg) was 57% and the “Percentage positive, Mean” value ([5]; 5.0 μg) was 74%. For the same molecule, the “Percentage positive, Mean” value ([5]; 20 μg) was 55%, the “Percentage positive, Assay 1” value [5, 9] was 52* % and the “Percentage positive, Assay 2” value [5, 9] was 58* %. For the same molecule, the “Percentage positive, Mean” value ([5]; 40 μg) was 32%, the “Percentage positive, Assay 1” value [5, 10] was 50* % and the “Percentage positive, Assay 2” value [5, 10] was 13* %. The “positive, Assay 1 (count)” value ([5]; 13-Day Embryo, 5.0 μg) was 0/26, the “inhibitory effect on older CAM” value ([5]; 13-day old chick, ten times 0.65 μg) was “no inhibitory effect” and the “effect on vitelline capillaries / chick embryo” value [1] was “disrupt vitelline capillaries in 3- to 5-day chick embryos; also recorded: No hemorrhage was seen; also recorded: absence of hemolysis; also recorded: especially active”. For the same molecule, the “tadpole response” value [2] was “blood flow through the capillaries of the tail shut down; also recorded: unaltered blood flow through the fine capillaries of the hands and feet; also recorded: common vascular occlusive effect; also recorded: Vascular occlusion in fine capillaries of tail; also recorded: No effect on vascular flow through hands or feet”, the “impact on tumor volume” value (B16 melanoma; squalamine 5 mg/kg/day alone) was “no significant impact on tumor volume” and the “suppression of B16 tumor volume” value (B16 melanoma; squalamine s.c., i.p. or oral, C57B mice) was “dose-dependent suppression of tumor volume”. For the same molecule, the “body weight and hematologic parameters” value (B16 melanoma; squalamine-treated mice) was “no significant depression”, the “suppression of growth of melanoma 1205Lu” value (human melanoma 1205Lu) was “clear suppression of tumor growth in a dose-dependent fashion; also recorded: reversible” and the “suppression of growth of human coronary artery smooth muscle” value [6] was “suppress in vitro the growth of human coronary artery smooth muscle”. For the same molecule, the “growth of fibroblast line” value [7] was “no effect”, the “growth of epithelial line” value [8] was “no effect” and the “specificity NHE3 over NHE1” value (rabbit NHE3) was “specificity for NHE3 over NHE1”. The “inhibition of NHE3 (Km and Vmax)” value (rabbit NHE3; 5 μg/ml, acid-preloaded 40 mM NH4Cl) was “inhibited NHE3 with respect to proton concentration at both Km and Vmax levels” and the “resting pH of cells” value (rabbit NHE3; 5 μg/ml, not acid-preloaded) was “the resting pH of these cells was also inhibited”.
